tested on: MDA-MB-468 cells; assay: In vitro cell activity, MDA-MB-468 cells, CCK-8; format: cell-based; settings: Homo sapiens, MDA-MB-468, 168 h, read-out: IC50 MDA-MB-468 Cell, triple negative breast cancer cells, 7 days
Procedure: Test compounds: the compounds of the present invention prepared in the above example. Each compound was formulated into a 10 mM stock solution with DMSO, and finally diluted into 8 concentrations for detection, with the final concentrations being 33333.00 nM, 6666.60 nM, 1333.32 nM, 266.66 nM, 53.33 nM, 10.67 nM, 2.13 nM, and 0.43 nM for experiments in Z-138 cells.
After thawing, the cryovial was taken out, and sterilized with an alcohol cotton ball, after which the cap was unscrewed. The cell fluid was drawn and injected into a centrifuge tube. 1 mL of L-15 medium containing 10% FBS was added, and mixed uniformly. The tube was placed in a centrifuge, and centrifuged at 1000 rpm for 5 min. Afterwards, the supernatant was discarded, and complete medium was added. The mixture was pipetted repeatedly until the cells were completely dispersed and resuspended. The mixture was inoculated in a petri dish at an appropriate concentration, and cultured in a CO2-free incubator at 37° C., and 95% humidified air.
The medium (Leibovitz's L-15 Medium+10% FBS+1% penicillin-streptomycin) was transferred to a 15 mL centrifuge tube, and centrifuged at 1000 rpm for 5 min. The supernatant was removed. The cells were resuspended in complete medium, and inoculated in a petri dish at the desired density. The dish was placed in a CO2-free incubator at 37° C., and 95% humid air. The culture medium was changed every 2-3 days or the passage was carried out, depending on the cell growth.
After passage, MDA-MB-468 cells were resuspended in complete medium at the corresponding density, 2000 cells/well, and inoculated in a 96-well culture plate. The wells at the outer circumference were filled with 200 μL PBS to prevent the culture conditions of the inner plate wells from being too different from each other due to the faster evaporation of medium at the edge. The leftmost column of the 60 inner wells were blank wells, which were not added with cells, but filled with equal volume of PBS. The remaining 54 wells were subjected to cell plating with a multichannel pipette, to each well was added 100 μL. The plate was placed in a CO2-free incubator and cultured at 37° C. for 24 h. […]
The first column of PBS was used as a blank control well, and 100 μL of CCK-8 was added synchronously thereto. […] The optimal detection time was determined according to the shade of color developed by CCK-8 (the optimal OD value for the DMSO group was about 1.0). […] The microplate reader software was opened, the detection parameters were adjusted, and the absorbance at 450 nm (OD value) was detected. The cover of the culture plate was removed, and the culture plate was directly placed horizontally in the plate groove to start reading. After the reading was finished, the program was saved, and the data was exported. […]

| IC50 [nM] | Compound |
| --- | --- |
| 116 | CC(=O)N1CCC(Nc2cc(C(=O)NC[C@H](O)CN3CCc4ccccc4C3)ncn2)CC1 [Compound A, (S)-6-((1-Acetylpiperidin-4-yl)amino)-N-(3-(3,4-dihydroisoquinolin-2(1H)-yl)-2-hydroxypropyl)pyrimidine-4-carboxamide] |
| 41.3 | CC(=O)N1CCC(Nc2ccc3c(c2)C(=O)N(C[C@H](O)CN2CCc4ccccc4C2)CC32CC2)CC1 [Compound B, (R)-7′-((1-Acetylpiperidin-4-yl)amino)-2′-(3-(3,4-dihydroisoquinolin-2(1H)-yl)-2-hydroxypropyl)-2′,3′-dihydro-1′H-spiro[cyclopropane-1,4′-isoquinolin]-1′-one, reference compound] |
| 11.6 | CC(=O)N1CCC(Nc2cc3c(cn2)C2(CC2)CN(C[C@H](O)CN2CCc4ccccc4C2)C3=O)CC1 [Example 1, (R)-7′-((1-acetylpiperidin-4-yl)amino)-2′-(3-(3,4-dihydroisoquinolin-2(1H)-yl)-2-hydroxypropyl)-2′,3′-dihydro-1′H-spiro[cyclopropane-1,4′-[2,6]naphthyridin]-1′-one] |

| Compound | IC50 [nM] |
| --- | --- |
| CC(=O)N1CC2(CC(Nc3cc4c(cn3)C3(CC3)CN(C[C@H](O)CN3CCc5ccccc5C3)C4=O)C2)C1 [Example 2, (R)-7′-((2-acetyl-2-azaspiro[3.3]hept-6-yl)amino)-2′-(3-(3,4-dihydroisoquinolin-2(1H)-yl)-2-hydroxypropyl)-2′,3′-dihydro-1′H-spiro[cyclopropane-1,4′-[2,6]naphthyridin]-1-one] | 7.35 |

— patent publication US20240116918A1, “SUBSTITUTED TRICYCLIC COMPOUND AS PRMT5 INHIBITOR AND USE THEREOF” (NANJING SANHOME PHARMACEUTICAL CO., LTD., priority 2019, published 2024)
